Data on 6 compounds can be found in ChEMBL document CHEMBL3045490, “N-Thiophenylethyl-2,2-dichloro-1-cyclopropanecarboxamides: modification of the amide part of carpropamid and examination of fungicidal activity” (2009).

What all share (format): functional
Experiment [1] relates to Pseudoperonospora cubensis. Kind of experiment: Antifungal activity against Pseudoperonospora cubensis in cucumber assessed as lesion area of the disease at 500 ug/ml after 7 days.
For another experiment, the system named is Blumeria graminis. Nature of the experiment: Antifungal activity against Blumeria graminis in wheat plant assessed as lesion area of the disease at 500 ug/ml after 10 days.
The test system of a further experiment is Puccinia recondita. Kind of experiment: Antifungal activity against Puccinia recondita in wheat plant assessed as lesion area of the disease at 500 ug/ml after 10 days.
A further experiment concerns Botrytis cinerea. Kind of experiment: Antifungal activity against Botryotinia fuckeliana in cucumber cotyledon assessed as lesion area of the disease at 500 ug/ml after 4 days.

For `CCC1(C(=O)NC(C)C2CCCCC2)C(C)C1(Cl)Cl` (centres undefined), the Activity result (in experiment [1]; in the experiment with Blumeria graminis; in the experiment on Puccinia recondita; in the experiment with Botrytis cinerea) was “>=80%” each time.
With `CCC1(C(=O)NCCc2ccc(F)cc2F)C(C)C1(Cl)Cl` (centres undefined), the Activity in experiment [1] was 0%; with Blumeria graminis it was 2.5%; in the experiment with Puccinia recondita it was “>=80%”; with Botrytis cinerea, below 20%.
For the compound `CCCC1(C(=O)NCCc2csc(Cl)c2)CC1(Cl)Cl` (centres undefined), the Activity result in experiment [1] is “>=80%”; with Blumeria graminis it was “>=80%”; with Puccinia recondita it was “>=80%”; in the experiment on Botrytis cinerea, 0.5%.
In the case of `CCC1(C(=O)NCCc2cc(Cl)sc2Cl)C(C)C1(Cl)Cl` (centres undefined), the Activity entry (in experiment [1]; in the experiment with Blumeria graminis; with Puccinia recondita; with Botrytis cinerea) was “>=80%” in each case.
Consider `CCC1(C(=O)NCCc2ccc(Cl)cc2)C(C)C1(Cl)Cl` (centres undefined), for which the Activity in experiment [1] was 3.5%; in the experiment with Blumeria graminis, “>=80%”; in the experiment with Puccinia recondita, “>=80%”; in the experiment with Botrytis cinerea, “>=80%”.
`CCC1(C(=O)NCCc2ccc(Br)cc2)C(C)C1(Cl)Cl` (centres undefined): the Activity result (in experiment [1]; with Blumeria graminis; in the experiment with Puccinia recondita; with Botrytis cinerea) was “>=80%” throughout.
